# Assay results: US7494987B2, “Agent for treating respiratory diseases containing 4-hydroxypiperidine derivative as active ingredient” (priority 2002, dated 2009)
# What was measured:
# [1] = tested on: Wistar Hannover female rats; experiment: Toxicological study, oral dose in rats; format: in vivo; details: 40 mg/kg, 6-week-old rats
# Protocol: The compound of Example 36 was orally given to 6-week-old Wistar Hannover female rats at 40 mg/kg.
# [2] = tested on: male rhesus monkeys; experiment: Toxicological study, 14-day repeated oral dose in rhesus monkeys; format: in vivo; details: 20 mg/kg/day once daily for 14 days
# Protocol: The compound of Example 36 or Example 26 was orally given to 3-year-old male rhesus monkeys at 20 mg/kg/day or 40 mg/kg/day, respectively, once daily for 14 days.
# [3] = tested on: male rhesus monkeys; experiment: Holter ECG test in rhesus monkeys; format: in vivo; details: oral, 40 mg/kg, 4-year-old male rhesus monkeys
# Protocol: In Holter ECG test, the compound of Example 36 or Example 26 was orally given to 4-year-old male rhesus monkeys at 40 mg/kg and 80 mg/kg, respectively.
# [4] = Pharmacokinetics, time-course of plasma concentration after single oral treatment; format: in vivo, rhesus monkeys
# Text: The compound of Example 36 or Example 26 was studied about time-course of plasma concentration after single oral treatment to 3- or 4-year-old male rhesus monkeys. […] The relationship between the dose and the plasma concentration was linear. […] Therefore, it can be considered that these compounds are unlikely to be metabolized by first pass effect.
# [5] = tested on: human drug-metabolizing enzymes; experiment: Inhibitory effect on human drug-metabolizing enzymes; format: in vitro ADME
# [6] = tested on: liver microsomes and hepatocytes of humans; experiment: Metabolic stability in liver microsomes and hepatocytes, humans; format: in vitro ADME
# [7] = tested on: liver microsomes and hepatocytes of monkeys; experiment: Metabolic stability in liver microsomes and hepatocytes, monkeys; format: in vitro ADME
# [8] = tested on: liver microsomes and hepatocytes of dogs; experiment: Metabolic stability in liver microsomes and hepatocytes, dogs; format: in vitro ADME
# [9] = tested on: liver microsomes and hepatocytes of rats; experiment: Metabolic stability in liver microsomes and hepatocytes, rats; format: in vitro ADME
smiles,measurement,setting,value
"Cl.N#Cc1ccc(CCN2CCC(O)(COc3ccc(C(=O)O)cc3)CC2)cc1 [Example 36, 4-{1-[2-(4-cyanophenyl)ethyl]-4-hydroxypiperidin-4-ylmethoxy}benzoic acid monohydrochloride]",abnormality in general behaviors,[1],no abnormality
same,survival during the examination period,[1],survived
same,abnormality in weight gains and general behaviors,[2],no abnormality
same,"findings in hematological and biochemical examinations, organ weights and histopathological tests",[2],No apparent toxicological findings
same,survival until 24 hours after the final treatment,[2],survived
same,effect on electrocardiogram,[3],no effect
same,bioavailability,[4]; 3- or 4-year-old male rhesus monkeys,high
same,"area under the plasma concentration-time curve (AUC), dependence on dose",[4]; rhesus monkeys,increased almost in proportion to the doses
same,"maximum plasma concentration (Cmax), dependence on dose",[4]; rhesus monkeys,increased almost in proportion to the doses
same,relationship between the dose and the plasma concentration,[4]; rhesus monkeys,linear
same,inhibitory effect on human drug-metabolizing enzymes,[5],almost no inhibitory effect
same,metabolic stability in liver microsomes and hepatocytes,[6],metabolically stable
same,metabolic stability in liver microsomes and hepatocytes,[7],metabolically stable
same,metabolic stability in liver microsomes and hepatocytes,[8],metabolically stable
same,metabolic stability in liver microsomes and hepatocytes,[9],metabolically stable
